Literature values, collected in publication PMC3892053, “Pharmacokinetic/pharmacodynamic modeling for the determination of a cimicoxib dosing regimen in the dog” (BMC Veterinary Research, 2013).
Like-named read-outs stand apart in the source and are kept apart here.

Key:
COX-1/COX-2 = settings: cited from earlier work; for greater potency for COX-2 inhibition: highly selective COX-2 inhibitors
g.i.t side effects = tested on: g.i.t side effects; parameters: method as in PMID 16871494; settings: large scale survey, mainly vomiting; cited from earlier work
wound healing = tested on: wound healing; parameters: method as in PMID 19175721; settings: mechanism independent of prostaglandin synthesis; cited from earlier work
[1] = cited from earlier work
nociceptive threshold = tested on: nociceptive threshold; parameters: method as in PMID 19186002; settings: rats, given systemically; cited from earlier work
[2] = as quoted in Discussion, no reference given
[3] = population PK survey in osteoarthritic dogs

For CC1(C)OC(=O)C(OCC2CC2)=C1c1ccc(S(C)(=O)=O)cc1 [firocoxib], the “greater potency for COX-2 inhibition” value (COX-1/COX-2) is given as “more than 100 fold”, the COX-1/COX-2 selectivity index (COX-1/COX-2; whole blood assay) is given as 384 and the “withdrawal rate associated with g.i.t side effects” value (g.i.t side effects) is given as 2.9 % of dogs. For the same compound, the “effect on wound healing” value (wound healing) was “slow down wound healing”, the half-life [1, 2] was 7 h and the plasma clearance ([1]; dog) was 7.7 mL/min/kg. The half-life ([1]; mixed-breed dogs) was 5.9 h.
In the case of Cc1ccc(-c2cc(C(F)(F)F)nn2-c2ccc(S(N)(=O)=O)cc2)cc1 [celecoxib], the “hypoalgesia (ipsilateral nociceptive threshold raised above basal values)” value (“hypoalgesia” for short) (nociceptive threshold) is given as “induced a state of hypoalgesia”.
For CCc1ccc(Nc2c(F)c(F)cc(F)c2F)c(CC(=O)O)c1 [robenacoxib], the “greater potency for COX-2 inhibition” value (COX-1/COX-2) is listed as “more than 100 fold”, the half-life [1, 2] is listed as 1 h and the half-life ([1]; beagle dogs) is listed as 0.63 h. For the same compound, the plasma clearance ([1]; dog) was 13.5 mL/min/kg.
In the case of CN1C(C(=O)Nc2ccccn2)=C(O)c2ccccc2S1(=O)=O [piroxicam], the “hypoalgesia” value (nociceptive threshold) is given as “not observed”.
In the case of CC(C(=O)O)c1ccc2c(c1)[nH]c1ccc(Cl)cc12 (stereo not drawn) [Carprofen], the half-life ([1]; dogs) is given as “about 9 h”.
In the case of COc1ccc2c(c1)c(CC(=O)O)c(C)n2C(=O)c1ccc(Cl)cc1 [indomethacin], the “hypoalgesia” value (nociceptive threshold) is given as “not observed”.
In the case of NS(=O)(=O)c1ccc(-n2nc(C(F)(F)F)cc2-c2ccc(F)cc2)cc1 [mavacoxib], the half-life ([1]; dog, in vivo) is given as 415 h, the plasma clearance ([1]; dog, in vivo) is given as 0.045 mL/min/kg and the “half-life of some beagle dogs” value ([1]; laboratory beagle dogs) is given as over 720 h. For the same compound, the “terminal half-life in some dogs (5% of the population)” value [1, 3] was “exceeded 80 days”, the “terminal half-life, extreme values” [1, 3] was “up to 140 days” and the “typical terminal half-life (population mean)” value [1, 3] was 1060 h.
